Reference: PMC8708704, “Discovery of New Chemical Tools against Leishmania amazonensis via the MMV Pathogen Box” (Pharmaceuticals, 2021)
Like-named read-outs stand apart in the source and are kept apart here.

Assays:
[1] = system: Leishmania amazonensis promastigotes; assay: Leishmanicidal activity against promastigotes (alamarBlue assay; screening at 10 µM and IC50); format: cell-based; conditions: for % of inhibition at 10 µM (against L. amazonensis promastigotes): first screening; for % of inhibition at 10 µM (against L. amazonensis promastigotes) / IC50: 72 h; for IC50: read-out: Leishmania amazonensis Promastigotes IC50; for Selectivity Index (CC50/IC50), promastigotes: macrophage CC50 / promastigote IC50
Description: For the experiments, promastigotes of Leishmania amazonensis strain (MHOM/BR/77/LTB0016) were used; they were maintained in RPMI 1640 medium (Gibco, Massachusetts, USA) at 26 °C. […] Subsequently, the plates were analyzed on an EnSpire multimode plate reader (PerkinElmer, MA, USA) to measure their fluorescence after 72 h. […] To this end, serial dilutions were performed in 96 well plates, and incubated with the parasites for 72 h after adding alamarBlue®. Next, the plates were analyzed on the EnSpire plate reader and the IC50 values were calculated by using SigmaPlot 14.0 (Systat Software Inc., Chicago, IL, USA). Each concentration was tested in duplicate and in three independent experiments for all the compounds.

[2] = Cytotoxic activity against murine macrophages (alamarBlue); conditions: mouse
[3] = system: Leishmania amazonensis intracellular amastigote; assay: Intracellular amastigote activity (parasite rescue and transformation assay); format: cell-based; conditions: for IC50: Leishmania amazonensis, Macrophage, read-out: Leishmania amazonensis Intracellular Amastigote IC50; for Selectivity Index (CC50/IC50), intracellular amastigote: macrophage CC50 / amastigote IC50
Description: The intracellular amastigote activity was measured by parasite rescue and transformation assay, also performed according to Jain et al. […] The macrophages were placed in a 96 well plate at a density of 2 × 10^5/mL in DMEM and incubated for 5 h. […] After the incubation, the excess promastigotes were washed off and serial dilutions of the compounds were added. After 24 h of incubation, we removed the medium and added 30 μL of Schneider medium with 0.05% SDS to break the macrophages. The plate was shaken for 30 s and a further 180 μL of medium was added to each well. The plates were then incubated at 26 °C for 72 h for the transformation of the rescued amastigote into promastigotes. AlamarBlue® was added and the plates were measured and analyzed as discussed above.

[4] = design: method as in mmv.org; conditions: ref mmv.org; cited from earlier work
[5] = Leishmania amazonensis, alamarBlue
[6] = 24 h treatment of infected macrophages, rescue 72 h

SMILES	% of inhibition at 10 µM (against L. amazonensis promastigotes) [1] [%]	other results
O=C(Nc1ccc(F)c(-c2nc3ncc(-c4ccccc4)cc3[nH]2)c1)N1CCCC1 [MMV688372]	87	–
N#Cc1nc(-c2ccccc2)oc1S(=O)(=O)c1ccc(Cl)cc1 [Compound 2]	–	CC50 at 24 h ([2]; J774A.1 murine macrophages): > 10 µM; IC50 [1, 5]: 4.03 ± 0.73 µM; Selectivity Index (CC50/IC50), promastigotes [1]: >2.48; IC50 [3, 6]: > 10 µM
CN1CCN(S(=O)(=O)c2ccc(-c3ccc4c(Nc5ncc(Cl)cn5)ccnc4c3)cc2)CC1 [MMV688283]	85	–
CCC(Sc1nc2ccccc2o1)C(=O)Nc1nccs1 (stereo not shown) [MMV676383]	83	–
CC1(O)CC(c2nc(-c3ccc4ccc(-c5ccccc5)nc4c3)c3c(N)nccn23)C1 (stereo not shown) [MMV676605]	53	–
CCOC(=O)c1c(NC(=O)c2c(F)c(F)c(F)c(F)c2F)sc(C(N)=O)c1C [MMV153413]	86	–
N=C(N)c1ccc(OCCCCCOc2ccc(C(=N)N)cc2)cc1 [MMV000062, reference compound]	89	–
c1coc(CNc2nc(N3CCCCC3)nc3ccccc23)c1 [MMV676401]	84	–
COc1nc2ccc(Br)cc2cc1[C@@H](c1ccccc1)[C@@](O)(CCN(C)C)c1cccc2ccccc12 [Compound 1, Bedaquiline, reference compound]	–	CC50 at 24 h [2]: > 10 µM; IC50 ([1]; Leishmania amazonensis): 6.43 ± 1.06 µM; Selectivity Index (CC50/IC50), promastigotes [1]: >1.56; IC50 [3]: > 10 µM
O=C(Nc1cccc(Cl)c1)c1cnc(N2CCN(c3ccncc3)CC2)c(Cl)c1 [MMV024406]	92	–
CNc1nnc(Sc2cnn(-c3ccccc3)c(=O)c2Cl)s1 [MMV688763]	86	–
Nc1ccc2ncnc(Nc3ccc(OCc4cccc(F)c4)c(Cl)c3)c2c1 [MMV688273]	79	–
O=C(Nc1ccc(C(F)(F)F)c(C(F)(F)F)c1)c1cc(Cl)ccc1O [MMV687807]	90	–
Cc1ccc(S(=O)(=O)n2cc(-c3ccnc(N)c3)c3cc(Br)cnc32)cc1 [MMV024114]	92	–
O=C(c1ccco1)N(CCCn1ccnc1)c1nc2c(Cl)cccc2s1 [MMV688936]	90	–
CCCCOC(=O)Nc1cc2[nH]c(C3CCCCC3)nc2cc1N1CCCC1 [MMV687730]	87	–
Cc1nc(-c2ccccn2)nc(N2CCC(Cc3ccccc3)C2)c1Cl (stereo not shown) [MMV659004]	87	–
Cc1ccc(-c2nc(CN(Cc3ccccn3)C(C)C)cs2)o1 [MMV1088520]	89	–
Cc1ccc(NC(=O)c2nc[nH]c2C(=O)Nc2nc3ccccc3[nH]2)c(C)c1 [MMV011903]	86	–
CN(C)c1cc(NC(=O)Nc2ccccc2)c2ccccc2n1 [MMV006901]	85	–
NC(N)=Nc1ccc(-c2ccc(-c3ccc(N=C(N)N)cc3Cl)o2)c(Cl)c1 [MMV688179]	86	–
Cc1ncc(-c2ccnc(Nc3ccc(S(C)(=O)=O)cc3)n2)n1C(C)C [MMV676604]	66	–
COc1cccc(-c2nc3c(N4CCCC4)cccc3n2CC2CCCN2)n1 (stereo not shown) [MMV687703]	85	–
O[C@@H](c1cc(C(F)(F)F)nc2c(C(F)(F)F)cccc12)[C@H]1CCCCN1 [MMV000016, reference compound]	86	–
C[C@]1(COc2ccc(N3CCC(Oc4ccc(OC(F)(F)F)cc4)CC3)cc2)Cn2cc([N+](=O)[O-])nc2O1 [MMV688262]	86	–
CC(=O)OC[C@H]1O[C@@H]([S-])[C@H](OC(C)=O)[C@@H](OC(C)=O)[C@@H]1OC(C)=O.CC[PH+](CC)CC.[Au] [MMV688978, reference compound]	90	–

SMILES	% of inhibition at 10 µM (against L. amazonensis promastigotes) [1] [%]	other results
CCc1c(C)nc(-n2nc(C)cc2NC(=O)c2ccccc2SC)[nH]c1=O [MMV676477]	92	–
CO/N=C(/C(=O)OC)c1ccccc1CO/N=C(/C)c1cccc(C(F)(F)F)c1 [MMV688754]	76	–
COc1ccc(Oc2ccc([C@@H](C)N(C)c3ncc4c(N)nc(N)nc4n3)cc2)cc1 [MMV690102]	89	–
CC(C)N=c1cc2n(-c3ccc(Cl)cc3)c3ccccc3nc-2cc1Nc1ccc(Cl)cc1 [MMV687800, reference compound]	88	–
CCOc1ccc(-c2nc(CNCCc3ccc(F)cc3)cs2)cc1 [MMV688938]	85	–
CC(C)n1nc(-c2cc3c(Cl)cccc3[nH]2)c2c(N)ncnc21 [MMV688417]	87	–
COc1cccc(-n2nnnc2S(C)(=O)=O)c1 [MMV272144]	89	–
Cc1ccc2oc(-c3cc(NC(=O)Cc4ccccc4)ccc3Cl)nc2c1 [MMV676509]	80	–
N#Cc1nc(-c2ccccc2)oc1S(=O)(=O)c1ccc(Cl)cc1 [MMV676412]	93	–
COC(=O)c1c(NC(=O)c2c(F)c(F)c(F)c(F)c2F)sc2c1CCCCC2 [MMV461553]	88	–
CN1CCN(CCCOc2ncc(Nc3ncc(-c4ccc(C(F)(F)F)c(F)c4)nc3C(N)=O)cn2)CC1 [Compound 8]	–	CC50 at 24 h ([2]; J774A.1 murine macrophages): 8.01 ± 1.13 µM; IC50 [1, 5]: 2.62 ± 0.4 µM; Selectivity Index (CC50/IC50), promastigotes [1]: 3.06; IC50 [3, 6]: 6.85 ± 0.75 µM; Selectivity Index (CC50/IC50), intracellular amastigote [3]: 1.17
COc1nc2ccc(Br)cc2cc1[C@@H](c1ccccc1)[C@@](O)(CCN(C)C)c1cccc2ccccc12 [MMV689758, reference compound]	90	–
NCCN(C(=O)c1ccc(Cl)cc1Cl)c1ccc(OCc2ccc(Cl)cc2)cc1 [MMV688371]	89	–
CCCn1c(NC(=O)c2ccc3ccccc3n2)nc2ccccc21 [Compound 6]	–	CC50 at 24 h ([2]; J774A.1 murine macrophages): > 10 µM; IC50 [1, 5]: 3.93 ± 0.64 µM; Selectivity Index (CC50/IC50), promastigotes [1]: >2.54; Glutathione Reactivity [4]: medium; IC50 [3, 6]: 8.52 ± 0.67 µM; Selectivity Index (CC50/IC50), intracellular amastigote [3]: >1.17
COc1ccc2nccc(NC(=O)C3CCN(CCc4ccc(Cl)cc4)CC3)c2n1 [MMV688844]	80	–
Cc1[nH]c2ccccc2c1C(c1cccs1)N1CCN(C)CC1 (stereo not shown) [MMV688768]	86	–
CC(c1cc(Cl)cc(Cl)c1)N(C)c1ncc2c(N)nc(N)nc2n1 (stereo not shown) [MMV689437]	89	–
Brc1cncc(-c2cc(NCCCn3ccnc3)nc(-c3ccccc3)n2)c1 [MMV661713]	84	–
Cn1c(=O)c2c(S(C)(=O)=O)snc2n(C)c1=O [Compound 4]	–	CC50 at 24 h ([2]; J774A.1 murine macrophages): 4.3 ± 0.16 µM; IC50 [1, 5]: < 2 µM; IC50 ([1]; alamarBlue): 1.44 ± 0.24 µM; Selectivity Index (CC50/IC50), promastigotes [1]: 2.94; IC50 [3, 6]: > 10 µM
CS(=O)(=O)c1ccc(C(=O)N(CC2CCCO2)c2nc3ccccc3s2)cc1[N+](=O)[O-] (stereo not shown) [MMV688761]	88	–
Cc1cnc(N2CCN[C@@H](Cc3ccccc3)C2)nc1Oc1ccc(-n2ccnc2)cc1 [MMV687765]	82	–
Cc1cc(NCCc2ccccc2)nc(NC(=N)Nc2ccc(Cl)cc2)n1 [MMV021660]	87	–
Cc1cc(C2=NOC(c3cc(Cl)c(F)c(Cl)c3)(C(F)(F)F)C2)ccc1C(=O)NCc1ccc2c(c1)C(C)(C)OB2O (stereo not shown) [MMV687776]	52	–
CC(C)=CCC/C(C)=C\CNCCNC1C2CC3CC(C2)CC1C3 (stereo not shown) [MMV687273]	89	–
Cc1[nH]c2cc(F)cc(F)c2c(=O)c1-c1ccc(Oc2ccc(OC(F)(F)F)cc2)cc1 [MMV671636]	66	–
